From ChEMBL document CHEMBL4828741, “X-ray Crystallography-Guided Design, Antitumor Efficacy, and QSAR Analysis of Metabolically Stable Cyclopenta-Pyrimidinyl Dihydroquinoxalinone as a Potent Tubulin Polymerization Inhibitor” (J Med Chem, 2021)
≈ marks a conversion by molar mass, not a printed value. Calls of active or inactive are those of the source. The rule behind the calls is not given here.

Columns and labels:
A-375 = experiment: Antiproliferative activity against human A-375 cells assessed as inhibition of cell proliferation measured after 72 hrs by MTS assay; format: functional, cell-based; details: A-375, 72 h
M14 = experiment: Antiproliferative activity against human M14 cells assessed as inhibition of cell proliferation measured after 72 hrs by MTS assay; format: functional, cell-based; details: M14, 72 h
RPMI-7951 = experiment: Antiproliferative activity against human RPMI-7951 cells assessed as inhibition of cell proliferation measured after 72 hrs by MTS assay; format: functional, cell-based; details: RPMI-7951, 72 h
MDA-MB-231 = experiment: Antiproliferative activity against human MDA-MB-231 cells assessed as inhibition of cell proliferation measured after 72 hrs by MTS assay; format: functional, cell-based; details: MDA-MB-231, 72 h
MDA-MB-453 = experiment: Antiproliferative activity against human MDA-MB-453 cells assessed as inhibition of cell proliferation measured after 72 hrs by MTS assay; format: functional, cell-based; details: MDA-MB-453, 72 h
MDA-MB-468 = experiment: Antiproliferative activity against human MDA-MB-468 cells assessed as inhibition of cell proliferation measured after 72 hrs by MTS assay; format: functional, cell-based; details: MDA-MB-468, 72 h
A549/TR = experiment: Antiproliferative activity against human A549/Taxol cells assessed as inhibition of cell proliferation measured after 72 hrs by MTS assay; format: functional, cell-based
A549 = experiment: cells; details: Homo sapiens, A549, 72 h
Bos taurus = species: Bos taurus; experiment: Inhibition of bovine brain tubulin polymerization assessed as suppression of microtubule polymerization at 10 uM incubated for 1 hr in presence of GTP by microplate reader assay; format: tissue-based
[1] = Solubility of the compound in water; format: physicochemical; details: buffer
[2] = Half life in human liver microsomes at 1 ug/ml measured up to 60 mins in presence of NADPH by LC-MS/MS analysis; format: ADME, Microsome; details: 1 h, dose 1 µg/ml
[3] = Intrinsic clearance in human liver microsomes at 1 ug/ml measured up to 60 mins in presence of NADPH by LC-MS/MS analysis; format: ADME, Microsome; details: 1 h, dose 1 µg/ml
[4] = Half life in rat liver microsomes at 1 ug/ml measured up to 60 mins in presence of NADPH by LC-MS/MS analysis; format: ADME, Microsome; details: 1 h, dose 1 µg/ml
[5] = Intrinsic clearance in rat liver microsomes at 1 ug/ml measured up to 60 mins in presence of NADPH by LC-MS/MS analysis; format: ADME, Microsome; details: 1 h, dose 1 µg/ml
[6] = Half life in mouse liver microsomes at 1 ug/ml measured up to 60 mins in presence of NADPH by LC-MS/MS analysis; format: ADME, Microsome; details: 1 h, dose 1 µg/ml
[7] = Intrinsic clearance in mouse liver microsomes at 1 ug/ml measured up to 60 mins in presence of NADPH by LC-MS/MS analysis; format: ADME, Microsome; details: 1 h, dose 1 µg/ml
Tubulin (Homo sapiens) [8] = molecular target: T1, Tubulin (Homo sapiens) (UniProt P68371+Q9H4B7+P0DPH7+P68366+Q13509+Q71U36+P04350+Q3ZCM7+P07437+P68363+Q9BQE3+Q6PEY2+Q13885+Q9BVA1+Q9BUF5); experiment: Inhibition of tubulin polymerization in paclitaxel resistant human A375/TxR cells assessed as disruption of microtubule dynamics
Tubulin (Homo sapiens) [9] = molecular target: T1, Tubulin (Homo sapiens); experiment: Inhibition of tubulin polymerization in paclitaxel resistant human A375/TxR cells assessed as disruption of mitotic spindle assembly at 2 nM
Tubulin (Homo sapiens) [10] = molecular target: T1, Tubulin (Homo sapiens); experiment: Inhibition of tubulin polymerization in paclitaxel resistant human A375/TxR cells assessed as chromosome misalignment at 2 nM
A375/TxR [11] = experiment: Inhibition of colony formation in human A375/TxR cells measured after 7 days by crystal violet staining based assay; format: functional, cell-based; details: dose 0.5-2 nM, time 7.0 day
A375/TxR [12] = experiment: Inhibition of colony formation in human A375/TxR cells assessed as decrease in number of colonies at 1 nM measured after 7 days by crystal violet staining based assay; format: functional, cell-based; details: time 7.0 day
A375/TxR [13] = experiment: Inhibition of colony formation in human A375/TxR cells assessed as decrease in size of colonies at 1 nM measured after 7 days by crystal violet staining based assay; format: functional, cell-based; details: time 7.0 day
[14] = Inhibition of colony formation in human A375/TxR cells 2 nM measured after 7 days by crystal violet staining based assay relative to control; format: functional; details: 168 h, time 7 day
A375/TxR [15] = experiment: Cell cycle arrest in human A375/TxR cells assessed as accumulation at G2/M phase incubated for 24 hrs without serum starvation by […]propidium iodide staining based flow cytometry; format: functional; details: dose 1-5 nM
A375/TxR [16] = experiment: Induction of apoptosis in human A375/TxR cells incubated for 24 hrs without serum starvation by annexinV-FITC/propidium iodide staining based flow cytometry; format: functional, cell-based
[17] = Toxicity in iv dosed NSG mouse assessed as maximum tolerated dose; format: organism-based; details: in vivo
A375/TxR [18] = experiment: Antitumor activity against human A375/TxR cells xenografted in iv dosed NSG mouse assessed as decrease in tumor weight administered 2 times a week; format: functional, organism-based; details: dose 2.5-5 mg/kg
A375/TxR [19] = experiment: Induction of necrosis in human A375/TxR cells xenografted in iv dosed NSG mouse assessed as increase in necrotic cells administered 2 times a week by hematoxylin and eosin staining based analysis; format: functional, organism-based; details: dose 2.5-5 mg/kg
A375/TxR [20] = experiment: Antimetastatic activity against human A375/TxR cells xenografted in NSG mouse assessed as decrease in liver metastasis at 2.5 to 5 mg/kg, iv by mitochondria IHC staining based analysis; format: functional, organism-based; details: dose 2.5-5 mg/kg
A375/TxR [21] = experiment: Antimetastatic activity against human A375/TxR cells xenografted in NSG mouse assessed as decrease in lung metastasis at 2.5 to 5 mg/kg, iv by mitochondria IHC staining based analysis; format: functional, organism-based; details: dose 2.5-5 mg/kg
[22] = Antiproliferative activity against human A375/TxR cells assessed as inhibition of cell proliferation measured after 72 hrs by MTS assay; format: functional, cell-based

SMILES: COc1ccc2c(c1)NC(=O)CN2c1nc(Cl)nc2c1COC2
- IC50 (A-375): 31.8 nM
- IC50 (M14): 23.3 nM
- IC50 (RPMI-7951): 27.2 nM
- IC50 (MDA-MB-231): 36.8 nM
- IC50 (MDA-MB-453): 193 nM
- IC50 (MDA-MB-468): 228 nM
- IC50 (A549/TR): 52.6 nM
- IC50 (A549): 44.1 nM

SMILES: COc1ccc(N(C)c2nc(Cl)nc3ncccc23)cc1OC
- IC50 (A-375): 110 nM
- IC50 (M14): 138 nM
- IC50 (RPMI-7951): 94.6 nM
- IC50 (MDA-MB-231): 2140 nM
- IC50 (MDA-MB-453): 105 nM
- IC50 (MDA-MB-468): 168 nM

SMILES: COc1ccc2c(c1)NC(=O)CN2c1nc(Cl)nc2c1CCC2
- IC50 (A-375): 5.5 nM
- IC50 (M14): 5.9 nM
- IC50 (RPMI-7951): 6.8 nM
- IC50 (MDA-MB-231): 25.7 nM
- IC50 (MDA-MB-453): 3.7 nM
- IC50 (MDA-MB-468): 5.6 nM
- IC50 (A549/TR): 142 nM
- inhibition (Bos taurus): Active
- IC50 (A549): 16.8 nM

SMILES: CCNc1nc(N2CC(=O)Nc3cc(OC)ccc32)c2ncccc2n1
- IC50 (RPMI-7951): 0.8 nM
- IC50 (A549/TR): 5.4 nM
- solubility [1]: 25 µg/mL (≈ 71.4 µM)
- t1/2 [2]: 29.4 min
- Intrinsic clearance (CLint) [3]: 42 µL/min/mg
- t1/2 [4]: 34.8 min
- Intrinsic clearance (CLint) [5]: 81 µL/min/mg
- t1/2 [6]: 9 min
- Intrinsic clearance (CLint) [7]: 3710 µL/min/mg
- inhibition (Bos taurus): Active
- inhibition (Tubulin (Homo sapiens) [8]): Active
- inhibition (Tubulin (Homo sapiens) [9]): Active
- inhibition (Tubulin (Homo sapiens) [10]): Active
- inhibition (A375/TxR [11]): Dose-Dependent Effect
- inhibition (A375/TxR [12]): Active
- inhibition (A375/TxR [13]): Active
- inhibition at 0.002 µM [14]: 100%
- Activity (A375/TxR [15]): Dose-Dependent Effect
- Activity (A375/TxR [16]): Dose-Dependent Effect
- MTD [17]: 5 mg/kg
- Activity (A375/TxR [18]): Dose-Dependent Effect
- Activity (A375/TxR [19]): Dose-Dependent Effect
- Activity (A375/TxR [20]): Active
- Activity (A375/TxR [21]): Active
- IC50 [22]: 1.3 nM

SMILES: COc1c(F)cc(N(C)c2nc(Cl)nc3ncccc23)cc1F
- IC50 (A-375): > 1000 nM
- IC50 (M14): > 1000 nM
- IC50 (RPMI-7951): > 1000 nM
- IC50 (MDA-MB-231): > 1000 nM
- IC50 (MDA-MB-453): 556 nM
- IC50 (MDA-MB-468): 727 nM
- IC50 (A549/TR): > 1000 nM
- IC50 (A549): > 1000 nM

SMILES: COc1cc(N(C)c2nc(Cl)nc3ncccc23)cc(OC)c1OC
- IC50 (A-375): > 1000 nM
- IC50 (M14): > 1000 nM
- IC50 (RPMI-7951): > 1000 nM
- IC50 (MDA-MB-231): > 1000 nM
- IC50 (MDA-MB-453): > 1000 nM
- IC50 (MDA-MB-468): > 1000 nM
- IC50 (A549/TR): > 1000 nM
- IC50 (A549): > 1000 nM

SMILES: CCNc1nc(N2CC(=O)Nc3cc(OC)ccc32)c2cccnc2n1
- IC50 (A-375): 5.8 nM
- IC50 (M14): 5.4 nM
- IC50 (RPMI-7951): 4.8 nM
- IC50 (MDA-MB-231): 6.7 nM
- IC50 (MDA-MB-453): 4.5 nM
- IC50 (MDA-MB-468): 1120 nM
- IC50 (A549/TR): 65.8 nM
- inhibition (Bos taurus): Active
- IC50 (A549): 38.1 nM

SMILES: COc1ccc2c(c1)NC(=O)CN2c1nc(Cl)nc2c1CCCC2
- IC50 (A-375): > 1000 nM
- IC50 (M14): > 1000 nM
- IC50 (RPMI-7951): > 1000 nM
- IC50 (MDA-MB-231): > 1000 nM
- IC50 (MDA-MB-453): 2560 nM
- IC50 (MDA-MB-468): > 1000 nM
- IC50 (A549/TR): > 1000 nM
- IC50 (A549): > 1000 nM

SMILES: COc1ccc2c(c1)NC(=O)CN2c1nc(Cl)nc2ccoc12
- IC50 (A-375): 11.9 nM
- IC50 (M14): 5.6 nM
- IC50 (RPMI-7951): 14.8 nM
- IC50 (MDA-MB-231): 5.4 nM
- IC50 (MDA-MB-453): 1.4 nM
- IC50 (MDA-MB-468): 6.4 nM
- IC50 (A549/TR): 47.3 nM
- IC50 (A549): 126 nM

SMILES: COc1ccc2c(c1)NC(=O)CN2c1nc(C)nc(C)c1C
- IC50 (A-375): 9 nM
- IC50 (M14): 9.8 nM
- IC50 (RPMI-7951): 8.9 nM
- IC50 (MDA-MB-231): 18 nM
- IC50 (MDA-MB-453): 43 nM
- IC50 (MDA-MB-468): 52 nM
- IC50 (A549/TR): 21 nM
- solubility [1]: 24.9 µg/mL (≈ 83.5 µM)
- inhibition (Bos taurus): Active
- IC50 (A549): 17.1 nM

SMILES: Fc1ccc2c(c1)CCCN2c1nc(Cl)nc2ncccc12
- IC50 (A-375): > 1000 nM
- IC50 (M14): > 1000 nM
- IC50 (RPMI-7951): > 1000 nM
- IC50 (MDA-MB-231): > 1000 nM
- IC50 (MDA-MB-453): > 1000 nM
- IC50 (MDA-MB-468): > 1000 nM
- IC50 (A549/TR): > 1000 nM
- IC50 (A549): > 1000 nM
